# Laboratory results: patent US10344054B2, “Angiotensin-1-receptor antagonists” (Ferring B.V., priority 2016, dated 2019)
# pIC50: −log10 of the molar value. Read-outs that look alike come from different tables or passages of the source. Residues, ends and D or L forms follow the SMILES beside them.
# Key:
# hAT1R [1] = biological target: T1, hAT1R (Homo sapiens, UniProt P30556); assay: FLIPR calcium flux assay, Part I: agonist activity; format: cell-based; conditions: read-out: hAT1R Agonist Efficacy Agonist (%) Ave
# T1 sequence (P30556 1-359): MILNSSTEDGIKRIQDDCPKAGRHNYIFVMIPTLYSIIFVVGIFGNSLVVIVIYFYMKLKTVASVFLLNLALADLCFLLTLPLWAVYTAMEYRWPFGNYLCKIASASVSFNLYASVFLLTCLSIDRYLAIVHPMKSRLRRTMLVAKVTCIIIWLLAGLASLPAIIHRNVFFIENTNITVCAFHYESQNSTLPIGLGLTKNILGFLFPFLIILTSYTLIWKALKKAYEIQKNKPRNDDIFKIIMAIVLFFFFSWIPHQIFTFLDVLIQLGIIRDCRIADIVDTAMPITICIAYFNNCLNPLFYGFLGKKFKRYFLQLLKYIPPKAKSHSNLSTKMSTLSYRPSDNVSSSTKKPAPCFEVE
# Protocol: (§1) AT1 receptor (AT1R) agonists increase intracellular flux of calcium ions. AT1R antagonists can reduce the agonist effect. […] Compounds were first tested for agonism (Part I) followed by addition of the AT1R agonist angiotensin II to test for antagonist activity (Part II). This assay used a stable hAT1R expressing cell line (ChanTest hAT1R; ChanTest Corp A628). Intracellular flux of calcium in response to agonist was measured through real-time measurement of fluorescence induced through the interaction of Ca2+ (released from intracellular stores) and calcium-sensitive dye. In Part I, cells were exposed to varying concentrations of test compounds and immediately measured for agonist activity (EC50 and Efficacy).
# (§2) ChanTest hAT1R stable cells were maintained in Ham's F12 containing 10% (v/v) heat inactivated fetal bovine serum (FBS-HI), 4 mM Glutamax, 1% NEAA, 50 ng/mL plasmocin, 400 μg/mL G418 at 37° C. under 5% CO2 in a humidified atmosphere.
# (§3) For FLIPR assay, ChanTest hAT1R cells were trypsinized with 6 ml of Trypsin EDTA solution and harvested in phenol-red free DMEM containing 10% FBS-HI, 4 mM Glutamax and counted, spun down and resuspended in the same medium. The cell suspension was added to the wells of 384-well black PDL clear bottom plates at 2.5×10^4 cells/well, 20 μl/well.
# (§4) Preparation of Loading Buffer:
# (§5) • Loading Buffer: 1 vial of Calcium 5 Bulk Assay reagent was dissolved in 100 ml of 1× HBSS-20 mM Hepes buffer. • Probenecid was resuspended at 1 M in 1 M NaOH. Once the probenecid had gone into solution, an equal volume of H2O was added to make a solution of 500 mM followed by a 1:100 dilution in the Loading Buffer for a working concentration of 5 mM. The pH was adjusted to 7.4 using 1 M NaOH. Loading the Cells with Loading Buffer • Cell plates were removed from the incubator and 25 μl of Loading Buffer containing probenecid (5 mM) added to each well. • Plates were incubated for 1 hour at 37° C. under 5% CO2 in a humidified atmosphere. […] The remaining steps of the assay were carried forward by FLIPR Tetra. A baseline reading was taken at 1-second (s) intervals for 10 s followed by the addition of 5 μl of 10× compounds. The compound-induced fluorescence signal was then measured for 3 minutes with readings taken at 1-s intervals. • The cell plate was removed from the FLIPR and set aside for an additional 17 minutes. • The cell plate was then transferred back to the FLIPR Tetra, along with the 384 well Angiotensin II agonist dilution plate. A baseline reading was taken at 1-second (s) intervals for 10 seconds, followed by the addition of 5.5 μl of 10× Angiotensin II agonist. The agonist-induced fluorescence signal was then measured for 3 minutes with readings taken at 1-s intervals. • Overall, each well in the FLIPR assay was composed of the following components in a total volume of 55.5 μl:
# (§6) Time-course results from the FLIPR Calcium 5 assay were expressed as relative fluorescence light units (RFU). The maximum minus minimum values (Max−Min) were used to quantify the strength of the signal. Mean RFU were calculated from replicate values and plotted on the y-axis versus compound concentration on a logarithmic scale on the x-axis, and a single-binding site, four parameter concentration response model: (MIN+((MAX−MIN)/(1+((EC50/x)^Hill)))), was used to perform non-linear regression analysis, generating concentration response curves. Reported parameters included agonist potency EC50 (the concentration causing half-maximal agonist response), antagonist potency IC50 (the concentration causing half-maximal inhibition of the agonist response for antagonist compounds) and efficacy (% MPE: percent of the maximal possible effect).
# hAT1R [2] = biological target: T1, hAT1R; assay: FLIPR calcium flux assay, Part II: antagonist activity against Angiotensin II; format: cell-based; conditions: for Emax: read-out: hAT1R Antagonist Efficacy Antag (%) Ave; for hAT1R Antagonist Efficacy Antag (%) Ave: Angiotensin II 10 nM final concentration
# Protocol: as §1, §2, §3, §4, §5, §6
# [3] = ChanTest hAT1R stable cells, % MPE, percent of the maximal possible effect
# [4] = read-out: hAT1R Antagonist IC50 Ave
Emax (hAT1R [1]; [3]) [%],Emax (hAT1R [2]) [%],pIC50 (hAT1R [2]; [4]),SMILES,Emax (hAT1R [1]) [%],pIC50 (hAT1R [2])
5,100,8.10,"CNCC(=O)N[C@@H](CCCNC(=N)N)C(=O)N[C@H](C(=O)N[C@@H](Cc1ccc(O)cc1)C(=O)N[C@@H](CC1CCCCC1)C(=O)N[C@@H](Cc1c[nH]cn1)C(=O)N1CCC[C@H]1C(=O)N[C@H](Cc1cccc2ccccc12)C(=O)O)C(C)C [Compound 14, Sar-Arg-Val-Tyr-Cha-His-Pro-(D-1Nal)-OH] (HELM PEPTIDE1{[Sar].R.V.Y.[Cha].H.P.[O=C(O)[C@@H](Cc1cccc2ccccc12)N[*:1]]}$$$$V2.0)",–,–
6,100,8.34,"CNCC(=O)N[C@@H](CCCNC(=N)N)C(=O)N[C@H](C(=O)N[C@@H](Cc1ccc(O)cc1)C(=O)N[C@H](C(=O)N[C@@H](Cc1c[nH]cn1)C(=O)N1CCC[C@H]1C(=O)N[C@H](Cc1cccc2ccccc12)C(=O)O)C1CCCC1)C(C)C [Compound 15, Sar-Arg-Val-Tyr-Cpg-His-Pro-(D-1Nal)-OH] (HELM PEPTIDE1{[Sar].R.V.Y.[O=C([C@@H](N[*:1])C1CCCC1)[*:2]].H.P.[O=C(O)[C@@H](Cc1cccc2ccccc12)N[*:1]]}$$$$V2.0)",–,–
6,99,8.30,"CNCC(=O)N[C@@H](CCCNC(=N)N)C(=O)N[C@H](C(=O)N[C@@H](Cc1ccc(O)cc1)C(=O)N[C@@H](Cc1ccccc1)C(=O)N[C@@H](Cc1c[nH]cn1)C(=O)N1CCC[C@H]1C(=O)N[C@H](Cc1cccc2ccccc12)C(=O)O)C(C)C [Compound 16, Sar-Arg-Val-Tyr-Phe-His-Pro-(D-1Nal)-OH] (HELM PEPTIDE1{[Sar].R.V.Y.F.H.P.[O=C(O)[C@@H](Cc1cccc2ccccc12)N[*:1]]}$$$$V2.0)",–,–
3,99,8.00,"CNCC(=O)N[C@@H](CCCNC(=N)N)C(=O)N[C@H](C(=O)N[C@@H](Cc1ccc(O)cc1)C(=O)N[C@H](C(=O)N[C@@H](Cc1c[nH]cn1)C(=O)N1CCC[C@H]1C(=O)N[C@H](Cc1ccccc1Cl)C(=O)O)C1CCCC1)C(C)C [Compound 18, Sar-Arg-Val-Tyr-Cpg-His-Pro-(D-Phe(2-Cl))—OH] (HELM PEPTIDE1{[Sar].R.V.Y.[O=C([C@@H](N[*:1])C1CCCC1)[*:2]].H.P.[O=C(O)[C@@H](Cc1ccccc1Cl)N[*:1]]}$$$$V2.0)",–,–
8,99,7.85,"CNCC(=O)N[C@@H](CCCNC(=N)N)C(=O)N[C@H](C(=O)N[C@@H](Cc1ccc(O)cc1)C(=O)N[C@H](C(=O)N[C@@H](Cc1c[nH]cn1)C(=O)N1CCC[C@H]1C(=O)N[C@H](Cc1ccccc1Cl)C(=O)O)C1CCCCC1)C(C)C [Compound 19, Sar-Arg-Val-Tyr-Chg-His-Pro-(D-Phe(2-Cl))—OH] (HELM PEPTIDE1{[Sar].R.V.Y.[O=C([C@@H](N[*:1])C1CCCCC1)[*:2]].H.P.[O=C(O)[C@@H](Cc1ccccc1Cl)N[*:1]]}$$$$V2.0)",–,–
2,99,7.97,"CNCC(=O)N[C@@H](CCCNC(=N)N)C(=O)N[C@H](C(=O)N[C@@H](Cc1ccc(O)cc1)C(=O)N[C@H](C(=O)N[C@@H](Cc1c[nH]cn1)C(=O)N1CCC[C@H]1C(=O)N[C@H](Cc1ccccc1Cl)C(=O)O)[C@@H](C)OC)C(C)C [Compound 21, Sar-Arg-Val-Tyr-Thr(Me)-His-Pro-(D-Phe(2-Cl))—OH]",–,–
3,99,8.30,"CNCC(=O)N[C@@H](CCCNC(=N)N)C(=O)N[C@H](C(=O)N[C@@H](Cc1ccc(O)cc1)C(=O)N[C@@H](Cc1ccsc1)C(=O)N[C@@H](Cc1c[nH]cn1)C(=O)N1CCC[C@H]1C(=O)N[C@H](Cc1ccccc1Cl)C(=O)O)C(C)C [Compound 22, Sar-Arg-Val-Tyr-(3-Thi)-His-Pro-(D-Phe(2-Cl))—OH] (HELM PEPTIDE1{[Sar].R.V.Y.[O=C([C@H](Cc1ccsc1)N[*:1])[*:2]].H.P.[O=C(O)[C@@H](Cc1ccccc1Cl)N[*:1]]}$$$$V2.0)",–,–
4,98,8.28,"CNCC(=O)N[C@@H](CCCNC(=N)N)C(=O)N[C@H](C(=O)N[C@@H](Cc1ccc(O)cc1)C(=O)N[C@@H](Cc1cccs1)C(=O)N[C@@H](Cc1c[nH]cn1)C(=O)N1CCC[C@H]1C(=O)N[C@H](Cc1ccccc1Cl)C(=O)O)C(C)C [Compound 23, Sar-Arg-Val-Tyr-(2-Thi)-His-Pro-(D-Phe(2-Cl))—OH] (HELM PEPTIDE1{[Sar].R.V.Y.[O=C([C@H](Cc1cccs1)N[*:1])[*:2]].H.P.[O=C(O)[C@@H](Cc1ccccc1Cl)N[*:1]]}$$$$V2.0)",–,–
4,99,8.15,"CNCC(=O)N[C@@H](CCCNC(=N)N)C(=O)N[C@H](C(=O)N[C@@H](Cc1ccc(O)cc1)C(=O)N[C@@H](Cc1cscn1)C(=O)N[C@@H](Cc1c[nH]cn1)C(=O)N1CCC[C@H]1C(=O)N[C@H](Cc1ccccc1Cl)C(=O)O)C(C)C [Compound 24, Sar-Arg-Val-Tyr-(Ala(4-Thz))-His-Pro-(D-Phe(2-Cl))—OH] (HELM PEPTIDE1{[Sar].R.V.Y.[O=C([C@H](Cc1cscn1)N[*:1])[*:2]].H.P.[O=C(O)[C@@H](Cc1ccccc1Cl)N[*:1]]}$$$$V2.0)",–,–
2,100,7.94,"CC[C@H](C)[C@H](NC(=O)[C@H](Cc1ccc(O)cc1)NC(=O)[C@@H](NC(=O)[C@H](CCCNC(=N)N)NC(=O)CNC)C(C)C)C(=O)N[C@@H](Cc1c[nH]cn1)C(=O)N1CCC[C@H]1C(=O)N[C@H](Cc1ccccc1Cl)C(=O)O [Compound 25, Sar-Arg-Val-Tyr-Ile-His-Pro-(D-Phe(2-Cl))—OH]",–,–
12,99,7.48,"CNCC(=O)N[C@@H](CCCNC(=N)N)C(=O)N[C@H](C(=O)N[C@@H](Cc1ccc(O)cc1)C(=O)N[C@H](C(=O)N[C@@H](Cc1c[nH]cn1)C(=O)N1CCC[C@H]1C(=O)N[C@H](Cc1ccccc1C(F)(F)F)C(=O)O)C1CCCCC1)C(C)C [Compound 26, Sar-Arg-Val-Tyr-Chg-His-Pro-(D-Phe(2-CF3))—OH] (HELM PEPTIDE1{[Sar].R.V.Y.[O=C([C@@H](N[*:1])C1CCCCC1)[*:2]].H.P.[O=C(O)[C@@H](Cc1ccccc1C(F)(F)F)N[*:1]]}$$$$V2.0)",–,–

SMILES,Emax (hAT1R [1]; [3]) [%],Emax (hAT1R [2]) [%],pIC50 (hAT1R [2]; [4]),Emax (hAT1R [1]) [%],pIC50 (hAT1R [2])
"CNCC(=O)N[C@@H](CCCNC(=N)N)C(=O)N[C@H](C(=O)N[C@@H](Cc1ccc(O)cc1)C(=O)N[C@H](C(=O)N[C@@H](Cc1c[nH]cn1)C(=O)N1CCC[C@H]1C(=O)N[C@H](Cc1cccc2ccccc12)C(=O)O)[C@@H](C)OC)C(C)C [Compound 17, Sar-Arg-Val-Tyr-Thr(Me)-His-Pro-(D-1Nal)-OH]",–,100,–,4,8.22
"CNCC(=O)N[C@@H](CCCNC(=N)N)C(=O)N[C@H](C(=O)N[C@@H](Cc1ccc(O)cc1)C(=O)N[C@@H](Cc1ccc(N)cc1)C(=O)N[C@@H](Cc1c[nH]cn1)C(=O)N1CCC[C@H]1C(=O)N[C@H](Cc1ccccc1Cl)C(=O)O)C(C)C [Compound 20, Sar-Arg-Val-Tyr-Aph-His-Pro-(D-Phe(2-Cl))—OH] (HELM PEPTIDE1{[Sar].R.V.Y.[Nc1ccc(C[C@H](N[*:1])C(=O)[*:2])cc1].H.P.[O=C(O)[C@@H](Cc1ccccc1Cl)N[*:1]]}$$$$V2.0)",5,99,8.28,–,–
